According to patent US7678918B2, “Intermediates for imidazonaphthyridines” (3M Innovative Properties Company, priority 1997, dated 2010):
Blank lines part the entries; values can stand above or below the molecule they belong to.

Key:
TNF = experiment: Cytokine Induction in Human Cells: tumor necrosis factor (TNF) secreted by PBMCs, ELISA; assay type: cell-based; details: 18 to 24 hours; note: call rule not given here
In short: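 Human donor PBMCs at 1.5-2×10^6 cells/mL in RPMI with 10% FBS were exposed to compound, generally at 0.1 to 100 μM (≤1% DMSO final), for 18 to 24 h at 37 °C. Secreted TNF in supernatant was measured by ELISA and reported as pg/mL.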

IFN = experiment: Cytokine Induction in Human Cells: interferon (IFN) secreted by PBMCs, A549/encephalomyocarditis bioassay; assay type: cell-based; details: 18 to 24 hours; note: call rule not given here
In short: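 Human PBMCs from healthy donors at 1.5-2×10^6 cells/mL in RPMI with 10% FBS, exposed to compounds (typically 0.1 to 100 μM, ≤1% DMSO) for 18 to 24 h at 37° C. Secreted IFN measured by A549/encephalomyocarditis virus cytopathic-effect bioassay, in alpha reference units/mL against NIH human leukocyte IFN standard.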

melting point: 325 to 330 °C (dec.)
Compound: CC(C)Cn1cnc2c(N)nc3ncccc3c21 (hydrate or solvate) [Example 9, 1-(2-Methylpropyl)-1H-imidazo[4,5-c][1,8]naphthyridin-4-amine hydrate]

melting point: 81 to 84 °C
Compound: CCCCc1nc2c(N)nc3c(c2n1CC(C)C)CCCN3 (hydrate or solvate) [Example 13, 2-Butyl-6,7,8,9-tetrahydro-1-(2-methylpropyl) 1H-imidazo[4,5-c][1,8]naphthyridin-4-amine]

melting point: 95 to 100 °C
Compound: CCCCc1nc2c(N)nc3cccnc3c2n1CCCCNC(=O)c1ccc(N2CCOCC2)nc1 (hydrate or solvate) [Example 106, N^1-[4(4-Amino-2-butyl-1H-imidazo[4,5-c][1,5]naphthyridin-1-yl)butyl]-6-morpholinonicotinamide]

melting point: 178 to 180 °C
Compound: Cc1nnnn1-c1ncccc1C(=O)O [Example 1, 2-(5-Methyl-1H-tetrazol-1-yl)nicotinic Acid]

melting point: 236 °C (dec.)
Compound: Oc1cc2nnnn2c2ncccc12 [Example 3, Tetrazolo[1,5-a][1,8]naphthyridin-5-ol]

melting point: 229 to 230 °C (dec.)
Compound: Clc1cc2nnnn2c2ncccc12 [Example 4, 5-Chlorotetrazolo[1,5-a][1,8]naphthyridine]

melting point: 171 °C (dec.)
Compound: CC(C)CNc1c([N+](=O)[O-])c2nnnn2c2ncccc12 [Example 6, N^5-(2-Methylpropyl)-4-nitrotetrazolo[1,5-a][1,8]naphthyridin-5-amine]

melting point: 248 to 250 °C (dec.)
Compound: CC(C)Cn1nnn2c3ncccc3c3ncnc-3c12 [Example 8, 1-(2-Methylpropyl)-1H-tetrazolo[1,5-a]imidazo[4,5-c][1,8]naphthyridine]

melting point: 214 to 215 °C (dec.)
Compound: Cc1nnnn1-c1cnccc1C(=O)O [Example 14, 3-(5-Methyl-1H-tetrazol-1-yl)pyridine-4-carboxylic acid]

melting point: 176 to 177 °C
Compound: Clc1cc2nnnn2c2cnccc12 [Example 17, 5-Chlorotetrazolo[1,5-a][1,7]naphthyridine]

melting point: 220 to 221 °C
Compound: CC(C)CNc1cc2nnnn2c2cnccc12 [Example 18, N^5-(2-Methylpropyl)tetrazolo[1,5-a][1,7]naphthyridin-5-amine]

melting point: 173 to 174 °C
Compound: CC(C)CNc1c([N+](=O)[O-])c2nnnn2c2cnccc12 [Example 19, N^5-(2-Methylpropyl)-4-nitrotetrazolo[1,5-a][1,7]naphthyridin-5-amine]

melting point: 203 to 204.5 °C
Compound: CC(C)CNc1c(N)c2nnnn2c2cnccc12 [Example 20, N^5-(2-Methylpropyl)tetrazolo[1,5-a][1,7]naphthyridin-4,5-diamine]

melting point: 181 to 182.5 °C
Compound: CC(C)Cn1nnc2c3ncnc-3c3ccncc3n21 [Example 21, 1-(2-Methylpropyl)-1H-tetrazolo[1,5-a]imidazo[4,5-c][1,7]naphthyridine]

melting point: 97 to 99 °C
Compound: CC(C)CNc1c([N+](=O)[O-])cnc2cccnc12 [Example 29, N^4-(2-Methylpropyl)-3-nitro[1,5]naphthyridin-4-amine]

melting point: 82 to 84 °C
Compound: CC(C)Cn1cnc2cnc3cccnc3c21 [Example 30, 1-(2-Methylpropyl)-1H-imidazo[4,5-c][1,5]naphthyridine]

melting point: 118 to 119 °C
Compound: Cc1nc2cnc3cccnc3c2n1CC(C)C [Example 34, 2-Methyl-1-(2-methylpropyl)-1H-imidazo[4,5-c][1,5]naphthyridine]

melting point: 137 to 138 °C
Compound: CC(C)(C)OC(=O)NCCCCNc1c([N+](=O)[O-])cnc2cccnc12 [Example 41, 1,1-Dimethylethyl N-{4-[(3-Nitro[1,5]naphthyridin-4-yl)amino]butyl}carbamate]

melting point: 96 to 98 °C
Compound: CCCCc1nc2cnc3cccnc3c2n1CCCCNC(=O)OC(C)(C)C [Example 43, 1,1-Dimethylethyl N-[4-(2-Butyl-1H-imidazo[4,5-c][1,5]naphthyridin-1-yl)butyl]carbamate]

melting point: 148.5 to 149.5 °C
Compound: CCCCc1nc2c(N)nc3cccnc3c2n1CCCCNC(=O)OC(C)(C)C [Example 45, 1,1-Dimethylethyl N-[4-(4-Amino-2-butyl-1H-imidazo[4,5-c][1,5]naphthyridin-1-yl)butyl]carbamate]
TNF induction (TNF; Dose Concentration 0.1 μM): −
TNF induction (TNF; Dose Concentration 1.0 μM): +
TNF induction (TNF; Dose Concentration 10.0 μM): +
TNF induction (TNF; Dose Concentration 100.0 μM): −
IFN induction (IFN; Dose Concentration 0.1 μM): +
IFN induction (IFN; Dose Concentration 1.0 μM): +
IFN induction (IFN; Dose Concentration 10.0 μM): +
IFN induction (IFN; Dose Concentration 100.0 μM): −

melting point: 212 to 213 °C
Compound: CCCCc1nc2c(N)nc3cccnc3c2n1CCCCN [Example 46, 4-(4-Amino-2-butyl-1H-imidazo[4,5-c][1,5]naphthyridin-1-yl)butaneamine]
TNF induction (TNF; Dose Concentration 0.1 μM): +
TNF induction (TNF; Dose Concentration 1.0 μM): +
TNF induction (TNF; Dose Concentration 10.0 μM): +
TNF induction (TNF; Dose Concentration 100.0 μM): +
IFN induction (IFN; Dose Concentration 0.1 μM): +
IFN induction (IFN; Dose Concentration 1.0 μM): +
IFN induction (IFN; Dose Concentration 10.0 μM): +

melting point: 184.5 to 186 °C
Compound: CC(C)(O)CNc1c([N+](=O)[O-])cnc2cccnc12 [Example 59, 1,1-Dimethyl-2-[(3-nitro[1,5]naphthyridin-4-yl)amino]ethanol]

melting point: 177 to 179 °C
Compound: CCCCc1nc2c(N)nc3cccnc3c2n1CC(C)(C)O [Example 62, 1,1-Dimethyl-2-(4-amino-2-butyl[1,5]napthyridin-1-yl)ethanol]
TNF induction (TNF; Dose Concentration 0.1 μM): +
TNF induction (TNF; Dose Concentration 1.0 μM): +
TNF induction (TNF; Dose Concentration 10.0 μM): +
TNF induction (TNF; Dose Concentration 100.0 μM): +
IFN induction (IFN; Dose Concentration 0.1 μM): +
IFN induction (IFN; Dose Concentration 1.0 μM): +
IFN induction (IFN; Dose Concentration 10.0 μM): +
IFN induction (IFN; Dose Concentration 100.0 μM): +

melting point: 211 to 213 °C
Compound: CC(C)(O)Cn1c(Cc2ccccc2)nc2c(N)nc3cccnc3c21 [Example 65, 1,1-Dimethyl-2-(4-amino-2-phenylmethyl[1,5]napthyridin-1-yl)ethanol]
TNF induction (TNF; Dose Concentration 0.1 μM): −
TNF induction (TNF; Dose Concentration 1.0 μM): +
TNF induction (TNF; Dose Concentration 10.0 μM): +
TNF induction (TNF; Dose Concentration 100.0 μM): +
IFN induction (IFN; Dose Concentration 0.1 μM): +
IFN induction (IFN; Dose Concentration 1.0 μM): +
IFN induction (IFN; Dose Concentration 10.0 μM): +
IFN induction (IFN; Dose Concentration 100.0 μM): +

melting point: 127 to 129 °C
Compound: O=[N+]([O-])c1cnc2cccnc2c1NCc1ccccc1 [Example 66, N-Phenylmethyl-3-nitro[1,5]naphthyridin-4-amine]

melting point: 118 to 119 °C
Compound: CCOCc1nc2cnc3cccnc3c2n1Cc1ccccc1 [Example 68, 2-Ethoxymethyl-1-phenylmethyl-1H-imidazo[4,5-c][1,5]naphthyridine]

melting point: 173 to 174 °C
Compound: CCOCc1nc2c(N)nc3cccnc3c2n1Cc1ccccc1 [Example 70, 2-Ethoxymethyl-1-phenylmethyl-1H-imidazo[4,5-c][1,5]naphthyridin-4-amine]
TNF induction (TNF; Dose Concentration 0.1 μM): −
TNF induction (TNF; Dose Concentration 1.0 μM): +
TNF induction (TNF; Dose Concentration 10.0 μM): +
TNF induction (TNF; Dose Concentration 100.0 μM): −
IFN induction (IFN; Dose Concentration 0.1 μM): +
IFN induction (IFN; Dose Concentration 1.0 μM): +
IFN induction (IFN; Dose Concentration 10.0 μM): +
IFN induction (IFN; Dose Concentration 100.0 μM): −

melting point: 62.5 to 63.5 °C
Compound: CC(C)OCCCNc1c([N+](=O)[O-])cnc2cccnc12 [Example 71, N^4-(3-Isopropoxypropyl)-3-nitro[1,5]naphthyridin-4-amine]

melting point: 174 to 175 °C
Compound: CCCCc1nc2c(N)nc3cccnc3c2n1CCCOC(C)C [Example 75, 2-Butyl-1-(3-isopropoxypropyl)-1H-imidazo[4,5-c][1,5]naphthyridine-4-amine]
TNF induction (TNF; Dose Concentration 0.1 μM): −
TNF induction (TNF; Dose Concentration 1.0 μM): −
TNF induction (TNF; Dose Concentration 10.0 μM): +
TNF induction (TNF; Dose Concentration 100.0 μM): −
IFN induction (IFN; Dose Concentration 0.1 μM): −
IFN induction (IFN; Dose Concentration 1.0 μM): +
IFN induction (IFN; Dose Concentration 10.0 μM): +
IFN induction (IFN; Dose Concentration 100.0 μM): +

Compound: CCCCOCCCn1c(CCCC)nc2cnc3cccnc3c21 [Example 78, 1-(3-Butoxypropyl)-2-butyl-1H-imidazo[4,5-c][1,5]naphthyridine]
melting point: 56.5 to 57.5 °C

Compound: CCCCOCCCn1c(CCCC)nc2c(N)nc3cccnc3c21 [Example 80, 1-(3-Butoxypropyl)-2-butyl-1H-imidazo[4,5-c][1,5]naphthyridin-4-amine]
melting point: 101 to 101.5 °C
TNF induction (TNF; Dose Concentration 0.1 μM): −
TNF induction (TNF; Dose Concentration 1.0 μM): −
TNF induction (TNF; Dose Concentration 10.0 μM): +
TNF induction (TNF; Dose Concentration 100.0 μM): −
IFN induction (IFN; Dose Concentration 0.1 μM): −
IFN induction (IFN; Dose Concentration 1.0 μM): +
IFN induction (IFN; Dose Concentration 10.0 μM): +
IFN induction (IFN; Dose Concentration 100.0 μM): −

melting point: 107 to 108 °C
Compound: O=[N+]([O-])c1cnc2cccnc2c1NCCOc1ccccc1 [Example 81, N^4-(2-Phenoxyethyl)-3-nitro[1,5]naphthyridin-4-amine]

melting point: 150 to 150.5 °C
Compound: CCCCc1nc2cnc3cccnc3c2n1CCOc1ccccc1 [Example 83, 2-(2-Butyl-1H-imidazo[4,5-c][1,5]naphthyridin-1-yl)ethyl Phenyl Ether]

melting point: 159 to 159.2 °C
Compound: CCCCc1nc2c(N)nc3cccnc3c2n1CCOc1ccccc1 [Example 85, 2-Butyl-1-(2-phenoxyethyl)-1H-imidazo[4,5-c][1,5]naphthyridin-4-amine]
TNF induction (TNF; Dose Concentration 0.1 μM): −
TNF induction (TNF; Dose Concentration 1.0 μM): +
TNF induction (TNF; Dose Concentration 10.0 μM): +
TNF induction (TNF; Dose Concentration 100.0 μM): −
IFN induction (IFN; Dose Concentration 0.1 μM): +
IFN induction (IFN; Dose Concentration 1.0 μM): +
IFN induction (IFN; Dose Concentration 10.0 μM): +
IFN induction (IFN; Dose Concentration 100.0 μM): −

melting point: 149 to 151 °C
Compound: CC(C)(C)OC(=O)NCCNc1c([N+](=O)[O-])cnc2cccnc12 [Example 86, 1,1-Dimethylethyl N-{2-[(3-Nitro[1,5]naphthyridin-4-yl)amino]ethyl}carbamate]

melting point: 135 to 138 °C
Compound: CCCCc1nc2c(N)nc3cccnc3c2n1CCNC(=O)C1CCC(=O)N1 (stereo not drawn) [Example 213]
